Experimental data taken from publication PMC9127186, “Molecular Basis Underlying Hepatobiliary and Renal Excretion of Phenolic Acids of Salvia miltiorrhiza Roots (Danshen)” (Frontiers in Pharmacology, 2022).

Experiments:
rat Ntcp = molecular target: T1, rat Ntcp (Rattus norvegicus, UniProt P26435); test: Cellular transport assay, HEK-293 cells expressing rat Ntcp; conditions: positive substrate 20 μM, 10 min; rat Ntcp
T1 sequence (P26435 1-362): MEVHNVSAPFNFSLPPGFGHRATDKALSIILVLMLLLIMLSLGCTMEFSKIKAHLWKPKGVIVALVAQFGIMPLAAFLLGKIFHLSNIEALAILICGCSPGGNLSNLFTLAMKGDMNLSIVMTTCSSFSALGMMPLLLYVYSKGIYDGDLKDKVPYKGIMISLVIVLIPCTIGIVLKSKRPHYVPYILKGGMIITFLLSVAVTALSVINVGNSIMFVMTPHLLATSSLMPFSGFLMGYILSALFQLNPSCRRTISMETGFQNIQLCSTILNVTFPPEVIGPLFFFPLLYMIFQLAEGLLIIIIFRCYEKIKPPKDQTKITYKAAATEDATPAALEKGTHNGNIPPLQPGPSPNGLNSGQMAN

human NTCP = molecular target: T2, human NTCP (Homo sapiens, UniProt Q14973); test: Cellular transport assay, HEK-293 cells expressing human NTCP; conditions: positive substrate 20 μM, 10 min; human NTCP
T2 sequence (Q14973 1-349): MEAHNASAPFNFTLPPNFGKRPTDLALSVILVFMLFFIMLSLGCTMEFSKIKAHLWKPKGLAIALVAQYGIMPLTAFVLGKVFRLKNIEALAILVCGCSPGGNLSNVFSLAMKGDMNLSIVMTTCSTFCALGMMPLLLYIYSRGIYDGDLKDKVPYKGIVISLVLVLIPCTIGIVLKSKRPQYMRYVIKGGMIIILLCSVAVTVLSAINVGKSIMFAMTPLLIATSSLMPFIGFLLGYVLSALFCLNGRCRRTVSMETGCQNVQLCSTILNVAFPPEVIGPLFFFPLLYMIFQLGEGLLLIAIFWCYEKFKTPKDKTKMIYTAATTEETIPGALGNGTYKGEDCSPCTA

human BSEP = human BSEP (Homo sapiens, UniProt O95342); test: Vesicular transport assay, inside-out membrane vesicles expressing human BSEP; conditions: positive substrate 20 μM, 10 min; human BSEP
Protocol: (§1) Inside-out membrane vesicles (5 mg protein/mL), prepared from insect cells expressing human multidrug resistance-associated protein (MRP) 2, MRP3, MRP4, breast cancer resistance protein (BCRP), bile salt export pump (BSEP), and multidrug resistance protein (MDR) one and rat Mrp2, Mrp4, Bcrp, and Bsep, and vesicles (5 mg protein/mL; prepared from the insect cells expressing no ABC transporter; serving as negative control) were obtained from Genomembrane (Kanazawa, Japan).
(§2) The test Danshen compounds at 100 µM final concentration were separately incubated with the membrane vesicles for 10 min. Buffer C (50 mM MOPS-tris, 70 mM KCl, 7.5 mM MgCl2, pH 7.0) was used for preincubation and incubation, while buffer D (40 mM MOPS-tris, 70 mM KCl, pH 7.0) was used for vesicle washing. The transport rate (pmol/mg protein/min) of the test Danshen compound was calculated using Equation (2): Transport=(CV×VV)/T/WV (2) where C V, V V, T, and W V represent concentration of the compound in vesicular lysates supernatant (μM), volume of the lysates (μL), incubation time (10 min), and amount of vesicle protein amount per well (0.05 mg), respectively. Differential transport of the test Danshen compound between ATP-containing vesicles and AMP-containing vesicles was defined as net transport ratio (TransportATP/TransportAMP ratio). […] All the incubation samples were analyzed by liquid chromatography/mass spectrometry.

rat Bsep = molecular target: T3, rat Bsep (Rattus norvegicus, UniProt O70127); test: Vesicular transport assay, inside-out membrane vesicles expressing rat Bsep; conditions: positive substrate 20 μM, 10 min; rat Bsep
T3 sequence (O70127 1-1321): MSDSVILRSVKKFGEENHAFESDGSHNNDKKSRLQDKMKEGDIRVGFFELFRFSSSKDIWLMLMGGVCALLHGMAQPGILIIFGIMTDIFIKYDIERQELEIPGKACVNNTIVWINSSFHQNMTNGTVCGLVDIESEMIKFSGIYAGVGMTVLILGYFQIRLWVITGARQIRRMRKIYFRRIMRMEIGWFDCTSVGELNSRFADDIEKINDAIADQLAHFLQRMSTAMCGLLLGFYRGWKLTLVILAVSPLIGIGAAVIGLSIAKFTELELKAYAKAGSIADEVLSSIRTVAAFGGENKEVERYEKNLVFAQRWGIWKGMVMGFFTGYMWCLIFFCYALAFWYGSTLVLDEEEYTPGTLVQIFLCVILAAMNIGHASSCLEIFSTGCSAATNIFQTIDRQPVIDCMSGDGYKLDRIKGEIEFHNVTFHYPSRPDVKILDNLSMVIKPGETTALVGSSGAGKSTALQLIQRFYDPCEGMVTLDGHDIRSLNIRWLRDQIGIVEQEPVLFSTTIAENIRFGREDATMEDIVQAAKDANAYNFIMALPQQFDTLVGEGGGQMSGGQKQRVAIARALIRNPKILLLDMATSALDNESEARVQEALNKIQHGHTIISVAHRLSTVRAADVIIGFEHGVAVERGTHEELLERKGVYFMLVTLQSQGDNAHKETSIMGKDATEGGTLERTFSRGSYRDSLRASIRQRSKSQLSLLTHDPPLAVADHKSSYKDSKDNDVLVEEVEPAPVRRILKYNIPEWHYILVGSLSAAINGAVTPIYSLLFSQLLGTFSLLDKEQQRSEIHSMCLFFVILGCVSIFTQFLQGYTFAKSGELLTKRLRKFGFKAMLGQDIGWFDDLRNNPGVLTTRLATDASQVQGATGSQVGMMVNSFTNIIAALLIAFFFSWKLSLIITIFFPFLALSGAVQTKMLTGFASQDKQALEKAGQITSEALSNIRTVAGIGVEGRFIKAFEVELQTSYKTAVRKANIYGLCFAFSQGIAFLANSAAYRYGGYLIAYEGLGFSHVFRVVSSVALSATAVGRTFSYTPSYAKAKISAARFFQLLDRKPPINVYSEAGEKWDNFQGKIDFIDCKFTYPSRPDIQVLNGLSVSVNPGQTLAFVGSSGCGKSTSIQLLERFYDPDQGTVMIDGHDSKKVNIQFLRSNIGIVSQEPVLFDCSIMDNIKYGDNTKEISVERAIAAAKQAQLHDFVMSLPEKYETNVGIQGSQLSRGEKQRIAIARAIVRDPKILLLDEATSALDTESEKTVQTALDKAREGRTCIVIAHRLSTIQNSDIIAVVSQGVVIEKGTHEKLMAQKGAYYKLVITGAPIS
Protocol: as §1, §2

rat Oct3 = molecular target: T4, rat Oct3 (Rattus norvegicus, UniProt O88446); test: Cellular transport assay, HEK-293 cells expressing rat Oct3; conditions: positive substrate 20 μM, 10 min; rat Oct3
T4 sequence (O88446 1-551): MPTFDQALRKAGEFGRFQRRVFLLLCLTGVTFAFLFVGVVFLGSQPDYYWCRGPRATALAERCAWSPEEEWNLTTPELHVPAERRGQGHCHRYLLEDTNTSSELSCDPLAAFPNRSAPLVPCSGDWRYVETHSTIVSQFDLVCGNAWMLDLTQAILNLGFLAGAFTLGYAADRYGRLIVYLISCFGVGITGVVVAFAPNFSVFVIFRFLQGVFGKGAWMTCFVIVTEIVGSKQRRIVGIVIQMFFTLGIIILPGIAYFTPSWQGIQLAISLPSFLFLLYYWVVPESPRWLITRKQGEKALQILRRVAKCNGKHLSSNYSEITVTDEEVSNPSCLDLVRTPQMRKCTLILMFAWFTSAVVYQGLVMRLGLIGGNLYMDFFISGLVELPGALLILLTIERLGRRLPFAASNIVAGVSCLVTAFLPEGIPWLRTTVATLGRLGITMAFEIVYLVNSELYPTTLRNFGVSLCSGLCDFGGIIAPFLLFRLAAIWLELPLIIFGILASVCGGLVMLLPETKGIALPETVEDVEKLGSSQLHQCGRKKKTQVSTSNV

human OCT3 = molecular target: T5, human OCT3 (Homo sapiens, UniProt O75751); test: Cellular transport assay, HEK-293 cells expressing human OCT3; conditions: positive substrate 20 μM, 10 min; human OCT3
T5 sequence (O75751 1-556): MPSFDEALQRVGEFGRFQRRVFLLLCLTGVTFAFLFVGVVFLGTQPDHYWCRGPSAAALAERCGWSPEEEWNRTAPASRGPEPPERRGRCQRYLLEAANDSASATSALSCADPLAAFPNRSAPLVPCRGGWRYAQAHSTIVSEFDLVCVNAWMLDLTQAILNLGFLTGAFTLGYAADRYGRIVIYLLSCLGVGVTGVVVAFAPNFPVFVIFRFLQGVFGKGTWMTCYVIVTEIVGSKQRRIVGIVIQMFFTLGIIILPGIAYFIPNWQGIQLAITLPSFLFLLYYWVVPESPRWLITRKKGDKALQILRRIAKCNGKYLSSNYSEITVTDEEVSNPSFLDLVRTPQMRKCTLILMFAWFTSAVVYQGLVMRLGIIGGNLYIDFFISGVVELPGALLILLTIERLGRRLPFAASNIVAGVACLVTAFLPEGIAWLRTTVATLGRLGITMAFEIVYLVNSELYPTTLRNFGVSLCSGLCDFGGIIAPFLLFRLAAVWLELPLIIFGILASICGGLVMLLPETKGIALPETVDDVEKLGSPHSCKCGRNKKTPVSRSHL

rat Octn2 = molecular target: T6, rat Octn2 (Rattus norvegicus, UniProt O70594); test: Cellular transport assay, HEK-293 cells expressing rat Octn2; conditions: positive substrate 20 μM, 10 min; rat Octn2
T6 sequence (O70594 1-557): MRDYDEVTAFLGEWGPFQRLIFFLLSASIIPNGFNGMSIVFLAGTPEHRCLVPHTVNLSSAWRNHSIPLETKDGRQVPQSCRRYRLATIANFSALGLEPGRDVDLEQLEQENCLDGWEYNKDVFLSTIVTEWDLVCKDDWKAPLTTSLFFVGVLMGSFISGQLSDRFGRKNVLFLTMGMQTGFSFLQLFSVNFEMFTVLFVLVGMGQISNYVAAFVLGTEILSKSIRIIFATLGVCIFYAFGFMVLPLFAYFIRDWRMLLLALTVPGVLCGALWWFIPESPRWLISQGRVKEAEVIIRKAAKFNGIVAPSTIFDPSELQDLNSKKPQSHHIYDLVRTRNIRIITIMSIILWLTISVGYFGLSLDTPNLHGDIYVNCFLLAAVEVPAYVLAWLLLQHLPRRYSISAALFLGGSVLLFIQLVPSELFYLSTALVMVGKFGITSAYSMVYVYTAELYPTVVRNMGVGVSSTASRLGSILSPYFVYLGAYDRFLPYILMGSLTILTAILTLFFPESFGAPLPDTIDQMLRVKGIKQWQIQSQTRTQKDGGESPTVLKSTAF

human BSEP, sequence (O95342 whole entry): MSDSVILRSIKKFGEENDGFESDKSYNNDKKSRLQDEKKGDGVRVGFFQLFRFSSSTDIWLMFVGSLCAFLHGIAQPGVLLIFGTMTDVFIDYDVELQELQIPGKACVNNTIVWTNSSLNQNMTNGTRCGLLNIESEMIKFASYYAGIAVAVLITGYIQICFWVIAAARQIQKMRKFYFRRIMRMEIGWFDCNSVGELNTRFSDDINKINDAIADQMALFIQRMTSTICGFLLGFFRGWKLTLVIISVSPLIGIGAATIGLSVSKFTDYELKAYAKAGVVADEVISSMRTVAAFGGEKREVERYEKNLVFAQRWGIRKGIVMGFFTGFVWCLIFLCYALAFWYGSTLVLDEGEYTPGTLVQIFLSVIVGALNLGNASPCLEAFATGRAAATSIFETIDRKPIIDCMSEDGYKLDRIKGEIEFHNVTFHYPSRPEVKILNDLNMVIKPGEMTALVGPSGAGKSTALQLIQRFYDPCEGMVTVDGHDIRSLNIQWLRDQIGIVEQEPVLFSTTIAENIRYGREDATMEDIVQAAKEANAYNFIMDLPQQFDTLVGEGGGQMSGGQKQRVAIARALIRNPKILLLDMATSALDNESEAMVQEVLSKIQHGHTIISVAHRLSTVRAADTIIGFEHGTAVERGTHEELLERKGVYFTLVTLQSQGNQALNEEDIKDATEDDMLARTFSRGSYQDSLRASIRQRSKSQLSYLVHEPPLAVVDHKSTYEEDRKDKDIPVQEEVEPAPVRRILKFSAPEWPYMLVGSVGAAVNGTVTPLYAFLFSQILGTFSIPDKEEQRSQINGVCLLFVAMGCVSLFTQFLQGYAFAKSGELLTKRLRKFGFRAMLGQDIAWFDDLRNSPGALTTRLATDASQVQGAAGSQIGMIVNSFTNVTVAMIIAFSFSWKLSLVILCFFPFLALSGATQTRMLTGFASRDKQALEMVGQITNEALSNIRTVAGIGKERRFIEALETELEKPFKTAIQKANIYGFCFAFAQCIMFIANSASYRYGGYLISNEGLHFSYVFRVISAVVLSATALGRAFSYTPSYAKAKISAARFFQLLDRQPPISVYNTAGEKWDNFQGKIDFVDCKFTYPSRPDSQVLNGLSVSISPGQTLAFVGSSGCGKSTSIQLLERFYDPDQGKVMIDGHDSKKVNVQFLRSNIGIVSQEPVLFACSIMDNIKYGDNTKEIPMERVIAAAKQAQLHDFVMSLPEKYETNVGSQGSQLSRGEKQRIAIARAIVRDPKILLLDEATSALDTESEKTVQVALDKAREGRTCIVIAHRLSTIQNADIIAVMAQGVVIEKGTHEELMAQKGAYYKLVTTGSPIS

C[C@H](CCC(=O)NCCS(=O)(=O)O)[C@H]1CC[C@H]2[C@@H]3[C@H](O)C[C@@H]4C[C@H](O)CC[C@]4(C)[C@H]3C[C@H](O)[C@]12C [TCA, taurocholic acid, reference compound]
TransportTC/TransportMC ratio, positive substrate (rat Ntcp): 134 ± 15 (TCA) | TransportTC/TransportMC ratio, positive substrate (human NTCP): 144 ± 30 (TCA) | TransportATP/TransportAMP ratio, positive substrate (human BSEP): 4.03 ± 0.89 (TCA) | TransportATP/TransportAMP ratio, positive substrate (rat Bsep): 5.14 ± 0.88 (TCA)

CC[N+](CC)(CC)CC [TEA, tetraethylammonium, reference compound]
TransportTC/TransportMC ratio, positive substrate (rat Oct3): 3.90 ± 0.88 (TEA) | TransportTC/TransportMC ratio, positive substrate (human OCT3): 4.45 ± 0.27 (TEA) | TransportTC/TransportMC ratio, positive substrate (rat Octn2): 9.85 ± 0.74 (TEA)
